In publication PMC8333425, “Discovery of a dual Ras and ARF6 inhibitor from a GPCR endocytosis screen” (Nature Communications, 2021):
Several values for one entry are separate records, joined by “and”; a condition that tells them apart may be missing. Equal entries are not always repeated.

Key:
ARF6 = molecular target: T1, ARF6 (Homo sapiens, UniProt P62330); assay: GST-GGA3-PBD pull-down of AT1R-mediated HA-ARF6 activation; type: cell-based; details: for ARF6-GTP/ARF6, GST-GGA3-PBD pull down: Comp 21 50 μM, individual experiments
T1 construct: expressed in transfected cells; host or cells: HEK293SL
Procedure: HEK293 cells were transfected with a BRET sensor that monitors the interaction between β-arrestins and the β-appendage of AP-2 (Fig. 2a)[26],[33]. […] The small GTPase ARF6, which binds β-arrestins and facilitates AP-2 and clathrin recruitment at the PM, is also necessary for CCPs initiation and receptor internalization. Therefore, ARF6 activity was assessed using the protein-3 binding domain (PBD) of the golgi-associated, gamma adaptin ear-containing, ARF-binding protein 3 (GGA3) fused to GST (GST-GGA3-PBD) in a pull-down assay, which allows the detection of GTP-bound ARF6 in cells[34] (Fig. 2b). […] This inhibition was selective for ARF6 since 21 had no effect on AT1R-dependent ARF1 activation (Supplementary Fig. 2a). We also devised a BRET assay to quantitatively assess 21’s action on ARF activity. The ARF BRET assay was created using the GGA3-PBD fused to RlucII (GGA3-PBD-RlucII) and the rGFP anchored at the PM (rGFP-CAAX) (Supplementary Fig. 3a). […] 21 blocked ARF’s activation by 40–60% following AT1R stimulation (Fig. 2c).
Activation of ARF1, ARF6, Ras, and Rho were assessed by using GST pull-down assays. HEK293SL cells were transiently transfected with 3 µg AT1R-flag only (Ras and Rho) or along with 500 ng HA-ARF6 (ARF6) or HA-ARF1 (ARF1). Forty-eight hours later, the HEK293 or MDA-MB-231 cells were serum-starved for 4 h with DMEM containing 20 mM HEPES then pretreated with DMSO or Rasarfin (50 µM) for 30 min. Cells were then stimulated with 1 µM AngII or 100 ng/ml EGF for 0 and 2 min. Cells were then washed once with ice-cold PBS and lysed for 30 min at 4 °C in 300 µl of lysis buffer (pH 7.5, 50 mM Tris-HCl, 140 mM NaCl, 5 mM MgCl2, 10% glycerol (v/v), 1% Nonidet P-40 (v/v), 1 mM dithiothreitol) supplemented with protease inhibitors (1 mM phenylmethyl-sulfonyl fluoride (PMSF), 10 µg/ml leupeptin, 5 µg/ml aprotinin, 1 µg/ml pepstatin A) and phosphatase inhibitors (20 mM NaF, 0.025 mM pervanadate). […] ImageLab 5.2 software was used to quantify the digital blots as fold of the amount of pulled down protein over total protein. […]

K-Ras = K-Ras (Homo sapiens, UniProt P01116); assay: In vitro mant-GTP exchange assay, purified K-Ras-WT with SOS1; type: biochemical; design: GST (N); FLAG (N); host or cells: E. coli BL21; details: 50 μM
Procedure: Ras activity was assessed in a 384-well black bottom plate using the mant-GTP exchange factor assay that measures the uptake of the fluorescent nucleotide analog N-methylanthraniloyl-GTP (mant-GTP) into GTPases. For Ras activation, 2X exchange buffer, 1.66 μg of purified pGEX-6P-1-H-Ras or pGEX-6P-1-K-Ras-WT or pGEX-6P-1-K-Ras-Y32A were added per well in presence of DMSO, different concentrations of Rasarfin (as indicated) or 50 µM of compounds 21.4, 21.7, or 21.8. Using the Infinite 200 Pro plate reader (Tecan) with filters set at 360 nm and 440 nm for detecting the excitation and emissions, respectively, and temperature set at 20 °C, 5 readings were recorded every 5 s before the addition of either H2O, 40 mM EDTA or 0.66 μg purified SOS1. The fluorescence of mant-GTP uptake was measured every 30 sec for 30 min and quantified as the delta relative fluorescence units (RFU), which was calculated as the RFU post-addition minus the 5 averaged RFU pre-addition, per condition.

T1 sequence (P62330 whole entry, species assumed): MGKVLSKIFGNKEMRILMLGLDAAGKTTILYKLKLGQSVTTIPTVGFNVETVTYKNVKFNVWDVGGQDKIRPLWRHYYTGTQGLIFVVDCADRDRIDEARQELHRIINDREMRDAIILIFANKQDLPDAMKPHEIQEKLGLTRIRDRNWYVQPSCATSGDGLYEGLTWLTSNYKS
Sequence of K-Ras (P01116 1-188 isoform P01116-2): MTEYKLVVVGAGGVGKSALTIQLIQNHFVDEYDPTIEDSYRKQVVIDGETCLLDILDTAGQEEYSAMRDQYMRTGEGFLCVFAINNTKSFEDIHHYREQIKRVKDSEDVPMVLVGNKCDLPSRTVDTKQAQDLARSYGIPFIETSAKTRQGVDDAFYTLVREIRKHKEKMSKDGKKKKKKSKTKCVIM

CC(C)C(=O)N1CCN(c2ccc(NC(=O)c3cc4ccccc4o3)cc2Cl)CC1 [Compound 21]
inhibition at 50 µM (ARF6; 50 μM, read-out: inhibition of ARF6-GTP (AngII-stimulated cells, pull-down)): > 70%
ARF6-GTP/ARF6, GST-GGA3-PBD pull down (ARF6; AngII): 0.1415 and 0.1921 and 0.09307 and 0.2014
ARF6-GTP/ARF6, GST-GGA3-PBD pull down (ARF6; Control (no AngII)): 0.0894 and 0.1773 and 0.03131 and 0.1335
SOS-mediated mant-GTP binding onto purified K-Ras (K-Ras): inhibited the SOS-mediated mant-GTP binding
